Test [1] has as its target T1, Stat3 (Mus musculus, UniProt P42227). Details: endogenous in cells; host or cells: NIH3T3/v-Src mouse fibroblasts (nuclear extract). The following applies: read-out: IC50, disruption of Stat3 DNA-binding activity in vitro; previously reported (22); cited from earlier work.
The target of test [2] is T1, Stat3. The test is described as follows: Fluorescence Polarization assay, Stat3 binding to 5-carboxyfluorescein-GpYLPQTV-NH2 probe. Also on record: Coding regions for the murine Stat3 protein; made in house; host or cells: E. coli BL21(DE3); species or system murine. How it is done: (§1) Coding regions for the murine Stat3 protein and Stat3 SH2 domain were amplified by PCR and cloned into vectors pET-44 Ek/LIC (Novagen) and pET SUMO (Invitrogen), respectively.
Fluorescence Polarization (FP) Assay was conducted as previously reported (23), with some modification using the phospho-peptide, 5-carboxyfluorescein-GpYLPQTV-NH2 (phosphorylated SEQ ID NO:7) (where pY represents phospho-Tyr) as probe and Stat3. The FP assay was used to evaluate the binding of agents to Stat3 and to determine the ability to disrupt the Stat3:pTyr peptide interaction. A fixed concentration of the fluorescently-labeled peptide probe (10 nM) was incubated with increasing concentration of the Stat3 protein for 30 min at room temperature in the buffer, 50 mM NaCI, 10 mM HEPES, 1 mM EDTA, 0.1% Nonidet P-40, and the fluorescent polarization measurements were determined using the POLARstar Omega (BMG LABTECH, Durham, N.C.), with the set gain adjustment at 35 mP. The Z′ value was derived per the equation Z′=1−(3 SDbound+3 SD free)/(mPbound−mPfree), where SD is the standard deviation and mP is the average of fluorescence polarization. In the bound state, 10 nM 5-carboxyfluorescein-GpYLPQTV-NH2 (phosphorylated SEQ ID NO:7) was incubated with 150 nM purified Stat3 protein, while the free (unbound) state was the same mixture, but incubated with an additional 10 IJM unlabeled Ac-GpYLPQTV-NH2 (phosphorylated SEQ ID NO:7). For evaluating agents, Stat3 protein (150 nM) was incubated with serial concentrations of S31-201.1066 at 30° C. for 60 min in the indicated assay buffer conditions. Prior to the addition of the fluorescence probe, the protein:S31-201.1066 mixtures were allowed to equilibrate at room temperature for 15 min. Probe was added at a final concentration of 10 nM and incubated for 30 min at room temperature following which the FP measurements were taken using the POLARstar Omega, with the set gain adjustment at 35 mP.
The FP assay was used to further test the computational modeling prediction of the ability of S31-201.1066 to disrupt Stat3 interaction with its cognate pTyr peptide.

In the next test the target is T2, His-tagged Stat3 (Mus musculus, UniProt P42227).
T2 construct: Coding regions for the murine Stat3 protein; made in house; host or cells: E. coli BL21(DE3)
The test is described as follows: Surface Plasmon Resonance analysis of binding to immobilized His-tagged Stat3. Details: species or system murine.
Text: as §1
Clones were sequenced to verify the correct sequences and orientation. His-tagged recombinant proteins were expressed in BL21(DE3) cells, and purified on Ni-ion sepharose column.
SensiQ and its analysis software Qdat (ICX Technologies, Oklahoma City, Okla.) were used to analyze the interaction between agents and the Stat3 protein and to determine the binding affinity. Purified Stat3 was immobilized on a HisCap Sensor Chip by injecting 50 µg/ml of Stat3 onto the chip. […] The association and dissociation rate constants were calculated using the Qdat software. The ratio of the association and dissociation rate constants was determined as the affinity (KD).
To provide definitive evidence of direct binding to Stat3, biophysical studies were performed. H1s-tagged Stat3 protein (or SH2 domain; 50 ng) was immobilized on a Ni-NTA sensor chip surface for Surface Plasmon Resonance analysis of the binding of 531201.1066 as the analyte. Association and dissociation measurements were taken and the binding affinity of S31-201.1066 for Stat3 was determined using Qdat software.

Test [3] addresses T1, Stat3. Also on record: Coding regions for the murine Stat3 protein; made in house; host or cells: E. coli BL21(DE3). The following applies: cited from earlier work.
Test [4] has as its target T1, Stat3. Description: Stat3 DNA-binding assay in vitro (EMSA, hSIE probe), nuclear extracts of NIH3T3/v-Src. Type of test: biochemical. Details: endogenous in cells; host or cells: NIH3T3/v-Src mouse fibroblasts (nuclear extract). Conditions: 30 min pre-incubation at room temperature, read-out: IC50, inhibition of Stat3 DNA-binding activity in vitro. The method, then: Nuclear extract preparations and electrophoretic mobility shift assay (EMSA) were carried out as previously described (28,33). […] Except where indicated, nuclear extracts were pre-incubated with compound for 30 min at room temperature prior to incubation with the radiolabeled probe for 30 min at 30° C. before subjecting to EMSA analysis.

The subject of test [5] is NIH3T3/v-Src, MDA-MB-231 and Panc-1 cells. The following applies: previously reported (18); cited from earlier work.

Here are results for four compounds from US8895746B2 (University of Central Florida Research Foundation, Inc., priority 2009, dated 2014).

Where two headings read alike, the source gives them in different places. Square brackets hold non-standard residues; d marks the D form. Ends that are not written are not given here. Peptide text beside a SMILES is read from it. pY = N[C@@H](Cc1ccc(OP(=O)(O)O)cc1)C(=O)O

T1 sequence (P42227 whole entry, the tested form may be a part): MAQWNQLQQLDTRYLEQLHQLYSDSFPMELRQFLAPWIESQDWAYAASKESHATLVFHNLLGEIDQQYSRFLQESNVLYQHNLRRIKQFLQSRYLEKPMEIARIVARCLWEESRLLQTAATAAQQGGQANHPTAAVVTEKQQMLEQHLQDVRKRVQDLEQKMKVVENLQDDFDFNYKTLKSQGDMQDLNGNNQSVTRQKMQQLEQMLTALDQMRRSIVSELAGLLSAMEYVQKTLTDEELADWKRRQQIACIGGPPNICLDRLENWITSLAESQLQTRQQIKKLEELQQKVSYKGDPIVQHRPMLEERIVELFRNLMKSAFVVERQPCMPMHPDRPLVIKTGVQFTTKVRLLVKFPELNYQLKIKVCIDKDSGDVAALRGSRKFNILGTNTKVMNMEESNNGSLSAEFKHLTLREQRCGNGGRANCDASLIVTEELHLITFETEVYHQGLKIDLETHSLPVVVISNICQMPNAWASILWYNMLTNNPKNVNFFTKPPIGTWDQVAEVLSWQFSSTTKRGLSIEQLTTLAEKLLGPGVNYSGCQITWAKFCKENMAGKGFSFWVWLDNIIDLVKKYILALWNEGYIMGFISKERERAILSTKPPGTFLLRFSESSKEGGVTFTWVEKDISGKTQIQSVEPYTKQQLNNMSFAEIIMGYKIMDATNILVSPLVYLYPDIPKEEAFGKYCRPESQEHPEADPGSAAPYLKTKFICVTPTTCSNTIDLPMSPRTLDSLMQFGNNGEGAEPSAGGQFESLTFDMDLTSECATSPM
T2 sequence (P42227 whole entry): as the sequence (P42227 whole entry, the tested form may be a part) above

Regarding `CC(C)C[C@H](NC(=O)[C@H](Cc1ccc(OP(=O)(O)O)cc1)NC(=O)CN)C(=O)N1CCC[C@H]1C(=O)N[C@@H](CCC(N)=O)C(=O)N[C@H](C(=O)N[C@H](C(N)=O)C(C)C)[C@@H](C)O` [GpYLPQTV-NH2] (H-G[pY]LPQTV-NH2), the IC50 on Stat3 [1] was 150 nM; on Stat3 [2] (150 nM Stat3, 10 nM probe, read-out: IC50, disruption of Stat3 binding to pTyr peptide probe) it was 300 nM; at Stat3 [3] (read-out: IC50, reported, reported (21)), 290 ± 63 nM; at Stat3 [3] (read-out: IC50 in FP assay, previously reported value, previously reported (23)), 250 ± 30 nM. Besides, the Kd on His-tagged Stat3 was 24 nM; at Stat3 [3] (read-out: affinity for Stat3, reported, reported (23)), 150 ± 10 nM.
Regarding `Cc1ccc(S(=O)(=O)N(C)CC(=O)N(Cc2ccc(C3CCN(c4ccc(C#N)cc4)CC3)cc2)c2ccc(C(=O)O)c(O)c2)cc1` [S3I-201.2096], the IC50 at Stat3 [4] stood at 45000 nM.
`Cc1ccc(S(=O)(=O)OCC(=O)Nc2ccc(C(=O)O)c(O)c2)cc1` [S3I-201]: the “concentration of antitumor cell activity previously reported for the lead agent” value in test [5] is 100 µM.
Consider GYLPQTV-NH2 [reference compound], for which the “effect on the fluorescent polarization signal” value in the test with Stat3 [2] (data not shown) is given as “no evidence of effect”. For the same compound, the “binding to Stat3 (SPR)” value in the test with His-tagged Stat3 (SPR, immobilized His-Stat3) was “little evidence of significant binding”.
